ChEMBL document CHEMBL1201862, “PubChem BioAssay data set” (2004)
The source made the active and inactive calls.

What was measured:
Cytochrome P450 2C9 = Cytochrome P450 2C9 (Homo sapiens, UniProt P11712)
[1] = non-specific 3'UTR reporter inhibition in Clone20-Shn3RL – cell-based, Renilla luciferase, cherry-picked, counter-screen for Shn3 inhibitor project, dose response (AID 624133); format: functional
Cytochrome P450 3A4 = Cytochrome P450 3A4 (Homo sapiens, UniProt P08684);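 also: CYP3A4 tested as one member of a cytochrome P450 panel screen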
Cytochrome P450 3A4, sequence (P08684 whole entry): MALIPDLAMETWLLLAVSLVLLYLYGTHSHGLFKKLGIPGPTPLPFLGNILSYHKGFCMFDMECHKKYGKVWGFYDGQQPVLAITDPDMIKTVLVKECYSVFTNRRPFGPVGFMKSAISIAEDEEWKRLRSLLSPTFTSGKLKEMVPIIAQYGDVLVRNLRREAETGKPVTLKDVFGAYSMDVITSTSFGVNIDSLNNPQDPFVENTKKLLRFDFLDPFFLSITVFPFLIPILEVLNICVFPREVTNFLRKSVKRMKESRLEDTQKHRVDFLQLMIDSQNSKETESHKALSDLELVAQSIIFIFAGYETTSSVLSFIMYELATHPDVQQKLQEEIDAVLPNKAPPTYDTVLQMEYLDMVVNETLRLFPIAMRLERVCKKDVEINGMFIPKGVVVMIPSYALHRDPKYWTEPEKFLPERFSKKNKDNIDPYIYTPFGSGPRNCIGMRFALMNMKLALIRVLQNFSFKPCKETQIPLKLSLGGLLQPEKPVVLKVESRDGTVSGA

[2] = loss of viability in HepG2 cells – cell-based, CellTiter-Glo, cherry-picked, cytotoxicity control for Shn3 inhibitor project, dose response (AID 624134); format: functional
[3] = reduction of Shn3 3'UTR-driven luciferase in osteoblasts – cell-based, Clone20 osteoblasts, firefly luciferase, cherry-picked, dose response (AID 624132); format: functional;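 also: firefly luciferase luminescence from reporter carrying the Shn3 3'UTR in osteoblasts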
Cytochrome P450 1A2 = target: T1, Cytochrome P450 1A2 (Homo sapiens, UniProt P05177);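 also: PubChem cytochrome P450 panel assay, CYP1A2 panel member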
T1 sequence (P05177 whole entry): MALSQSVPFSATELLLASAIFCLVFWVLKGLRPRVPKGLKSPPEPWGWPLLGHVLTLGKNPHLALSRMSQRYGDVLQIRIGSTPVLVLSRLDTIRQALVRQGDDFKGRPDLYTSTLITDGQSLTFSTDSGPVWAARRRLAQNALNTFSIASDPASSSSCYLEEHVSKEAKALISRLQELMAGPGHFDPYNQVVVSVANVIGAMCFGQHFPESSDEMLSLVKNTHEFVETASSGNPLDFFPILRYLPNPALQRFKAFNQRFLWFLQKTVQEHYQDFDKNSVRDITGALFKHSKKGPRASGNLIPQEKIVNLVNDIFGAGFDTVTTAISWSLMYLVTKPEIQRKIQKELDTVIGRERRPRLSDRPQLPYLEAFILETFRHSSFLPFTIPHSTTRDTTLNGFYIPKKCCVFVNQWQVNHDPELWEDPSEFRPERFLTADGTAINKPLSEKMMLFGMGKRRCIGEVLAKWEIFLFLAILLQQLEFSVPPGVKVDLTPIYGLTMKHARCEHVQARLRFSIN

Cytochrome P450 2C19 = Cytochrome P450 2C19 (Homo sapiens, UniProt P33261); experiment: Cytochrome panel assay with activity outcomes. Panel member name: p450-cyp2c19 Compounds with AC50 equal or less than 10 uM are considered active; format: functional
Cytochrome P450 2C19, sequence (P33261 whole entry): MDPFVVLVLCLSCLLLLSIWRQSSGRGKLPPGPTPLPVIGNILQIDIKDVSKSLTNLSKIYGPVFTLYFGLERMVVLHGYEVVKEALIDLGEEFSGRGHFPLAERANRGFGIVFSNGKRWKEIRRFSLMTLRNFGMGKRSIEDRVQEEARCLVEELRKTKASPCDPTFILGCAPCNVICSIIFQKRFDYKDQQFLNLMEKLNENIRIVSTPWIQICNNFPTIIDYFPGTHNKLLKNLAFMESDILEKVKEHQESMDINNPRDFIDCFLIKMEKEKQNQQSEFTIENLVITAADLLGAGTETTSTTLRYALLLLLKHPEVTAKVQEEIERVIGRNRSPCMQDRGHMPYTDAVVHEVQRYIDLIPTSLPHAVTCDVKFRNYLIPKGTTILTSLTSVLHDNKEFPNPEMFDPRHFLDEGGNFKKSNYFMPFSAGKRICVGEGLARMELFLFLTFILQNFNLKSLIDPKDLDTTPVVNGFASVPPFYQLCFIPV

Streptokinase A = target: T2, Streptokinase A (Streptococcus pyogenes serotype M1, UniProt P10520); experiment: viability-normalized secreted streptokinase activity reduction – plasminogen activation absorbance, OD405, dose response (AID 1914); format: functional, Streptococcus pyogenes M1 GAS;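 also: secreted streptokinase activity via plasminogen activation per viability signal from cell pellet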
T2 sequence (P10520 whole entry): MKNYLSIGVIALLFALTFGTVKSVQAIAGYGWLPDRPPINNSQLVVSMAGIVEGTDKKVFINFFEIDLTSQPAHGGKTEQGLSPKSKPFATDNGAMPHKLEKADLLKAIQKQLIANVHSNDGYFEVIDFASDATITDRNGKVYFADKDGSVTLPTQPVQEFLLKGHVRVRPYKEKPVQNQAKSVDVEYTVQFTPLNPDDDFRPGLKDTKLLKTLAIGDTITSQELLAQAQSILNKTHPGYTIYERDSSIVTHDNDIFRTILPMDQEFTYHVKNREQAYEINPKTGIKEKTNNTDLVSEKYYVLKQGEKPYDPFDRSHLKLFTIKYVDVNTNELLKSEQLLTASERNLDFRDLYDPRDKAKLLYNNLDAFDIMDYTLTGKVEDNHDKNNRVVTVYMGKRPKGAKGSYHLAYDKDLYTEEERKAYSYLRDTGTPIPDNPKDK

Streptococcus = experiment: GAS UMAA2166 growth inhibition – luminescence, BacTiterGlo, counter-screen for streptokinase expression inhibitor project, dose response (AID 1915); format: functional, organism-based;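 also: potency for reduction of bacterial viability or growth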
[4] = test system: Streptococcus sp. 'group A'; experiment: Streptococcus pyogenes SK(-)GAS viability under kanamycin – luminescence, BacTiterGlo, confirmation, counter-screen for streptokinase expression inhibitor project, dose response (AID 1900); format: functional, organism-based
[5] = viability of uninfected HEp-2 cells – cell-based, HTS, cytotoxicity control for RSV inhibitor project, dose response (AID 2410); format: functional; details: human respiratory syncytial virus
[6] = fluconazole-exposed Candida albicans growth modulators – fluorescence, retest, confirmation (AID 2467); format: functional, cell-based
[7] = NIH-3T3 fibroblast cytotoxicity, dose response, cytotoxicity control, cell-based, fluorescence, Alamar Blue, secondary assay (AID 2327); format: functional;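 also: NIH-3T3 mouse fibroblasts cultured with fluconazole at 8 µg/mL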
[8] = target: T3, Zinc finger protein mex-5 (Caenorhabditis elegans, UniProt Q9XUB2); experiment: potency of MEX-5 RNA-binding blockers – biochemical, C. elegans, fluorescence polarization, dose response (AID 1960)
T3 sequence (Q9XUB2 whole entry): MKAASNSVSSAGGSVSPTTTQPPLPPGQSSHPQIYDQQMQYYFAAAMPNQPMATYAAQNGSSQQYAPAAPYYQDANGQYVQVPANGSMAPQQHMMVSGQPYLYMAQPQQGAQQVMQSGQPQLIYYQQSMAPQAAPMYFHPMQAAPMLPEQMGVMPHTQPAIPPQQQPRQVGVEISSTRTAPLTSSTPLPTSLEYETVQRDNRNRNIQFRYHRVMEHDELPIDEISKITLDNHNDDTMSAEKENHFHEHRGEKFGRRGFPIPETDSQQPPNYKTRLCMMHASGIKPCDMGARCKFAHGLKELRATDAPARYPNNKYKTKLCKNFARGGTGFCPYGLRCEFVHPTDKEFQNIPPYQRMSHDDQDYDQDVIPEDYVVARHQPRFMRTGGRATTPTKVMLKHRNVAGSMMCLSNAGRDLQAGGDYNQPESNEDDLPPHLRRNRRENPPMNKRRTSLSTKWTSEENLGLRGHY

[9] = target: T4, RNA-binding protein pos-1 (Caenorhabditis elegans, UniProt G5EF15); experiment: disruptors of C. elegans POS-1 RNA interaction – biochemical, fluorescence polarization, dose response (AID 1964);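 also: purified POS-1 fused to maltose binding protein made in E. coli; potency of compounds blocking POS-1 binding to fluorescent RNA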
T4 sequence (G5EF15 whole entry): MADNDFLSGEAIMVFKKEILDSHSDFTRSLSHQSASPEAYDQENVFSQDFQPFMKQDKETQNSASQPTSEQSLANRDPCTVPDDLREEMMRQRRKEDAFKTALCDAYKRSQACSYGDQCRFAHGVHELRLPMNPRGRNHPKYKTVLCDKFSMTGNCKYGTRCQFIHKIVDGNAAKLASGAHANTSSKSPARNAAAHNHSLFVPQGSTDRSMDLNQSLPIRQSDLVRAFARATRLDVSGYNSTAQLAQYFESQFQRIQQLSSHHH

[10] = viability of PTEN-deleted HCT116 cells – cell-based, HCT116 PTEN knockout, dose response (AID 1047); format: functional;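 also: HCT116 colon tumor cells with PTEN knocked out; cells exposed to compound for 60 hours before readout; potency for loss of cell viability measured by luminescence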
[11] = viability of HCT116 lacking mutant beta-catenin – cell-based, human colon tumor, dose response (AID 1045); format: functional;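 also: HCT116 colon tumor cells with beta catenin knocked out; cells exposed to compound for 60 hours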
[12] = target: T5, Corticotropin-releasing factor receptor 2/Corticotropin-releasing factor-binding protein (Homo sapiens, UniProt P24387+Q13324); experiment: activators of CRF receptor 2 with binding protein – uHTS hits, confirmation (AID 602473); format: functional; details: read-out: EC50_Mean
T5 sequence (Q13324 whole entry): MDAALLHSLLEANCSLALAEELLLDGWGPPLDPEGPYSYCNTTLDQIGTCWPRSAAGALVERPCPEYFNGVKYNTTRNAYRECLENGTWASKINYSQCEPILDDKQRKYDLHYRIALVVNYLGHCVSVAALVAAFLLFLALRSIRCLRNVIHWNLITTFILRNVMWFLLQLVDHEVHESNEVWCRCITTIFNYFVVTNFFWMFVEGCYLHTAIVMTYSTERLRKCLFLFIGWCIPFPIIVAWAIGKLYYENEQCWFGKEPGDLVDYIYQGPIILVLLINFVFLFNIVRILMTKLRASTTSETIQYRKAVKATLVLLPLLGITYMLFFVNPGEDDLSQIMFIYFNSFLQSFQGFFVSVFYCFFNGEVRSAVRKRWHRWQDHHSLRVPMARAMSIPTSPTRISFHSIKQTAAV
T5 sequence (P24387 whole entry): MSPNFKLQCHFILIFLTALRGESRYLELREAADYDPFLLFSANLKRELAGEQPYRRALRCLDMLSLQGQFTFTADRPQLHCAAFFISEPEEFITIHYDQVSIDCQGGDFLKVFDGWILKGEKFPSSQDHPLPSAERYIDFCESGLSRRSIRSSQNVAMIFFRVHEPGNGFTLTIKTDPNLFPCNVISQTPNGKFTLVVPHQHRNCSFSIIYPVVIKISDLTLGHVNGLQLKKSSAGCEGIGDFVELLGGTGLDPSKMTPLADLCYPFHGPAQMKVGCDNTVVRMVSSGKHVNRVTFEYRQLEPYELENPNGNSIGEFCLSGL

[13] = target: T5, Corticotropin-releasing factor receptor 2/Corticotropin-releasing factor-binding protein; experiment: Dose Response confirmation of uHTS hits for small molecule antagonists of the CRF-binding protein and CRF-R2 receptor complex.; format: functional; details: read-out: IC50_Mean

Cytochrome P450 2C9, sequence (P11712 whole entry): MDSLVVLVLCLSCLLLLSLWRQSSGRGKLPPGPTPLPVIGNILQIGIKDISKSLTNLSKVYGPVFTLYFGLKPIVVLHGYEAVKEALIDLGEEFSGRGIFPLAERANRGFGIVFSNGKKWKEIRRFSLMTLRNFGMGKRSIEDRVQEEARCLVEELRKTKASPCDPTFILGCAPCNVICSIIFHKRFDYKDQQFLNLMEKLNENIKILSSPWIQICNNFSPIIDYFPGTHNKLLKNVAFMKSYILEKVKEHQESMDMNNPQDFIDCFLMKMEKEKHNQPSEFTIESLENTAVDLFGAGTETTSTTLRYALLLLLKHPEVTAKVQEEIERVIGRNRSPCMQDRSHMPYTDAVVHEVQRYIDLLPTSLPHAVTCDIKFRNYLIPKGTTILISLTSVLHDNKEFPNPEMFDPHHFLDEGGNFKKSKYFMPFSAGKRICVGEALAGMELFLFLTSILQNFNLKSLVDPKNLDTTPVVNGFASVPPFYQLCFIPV

SMILES | AC50 (Cytochrome P450 2C9) | EC50 (Streptokinase A) | EC50 (Streptococcus) | EC50 [4] | also measured
CCN(CC)C(=O)C1CCN(S(=O)(=O)c2ccc3oc4ccccc4c3c2)CC1 | inconclusive | – | – | – | AC50 [1]: 10.1 µM (active); AC50 (Cytochrome P450 3A4): 3.98 µM (inconclusive); AC50 [2]: > 70 µM (inactive); AC50 [3]: 3.96 µM (active)
CCOc1ccc(/C=N/Nc2nc(N3CCCC3)nc(N3CCCC3)n2)cc1OC | inconclusive | – | – | – | AC50 (Cytochrome P450 1A2): 39.8 µM (inconclusive); AC50 (Cytochrome P450 2C19; read-out: AC50): 39.8 µM (inconclusive)
Cc1ccc(-c2nn(-c3ccccc3)cc2/C=N/n2c(S)nnc2-c2cccs2)cc1 | – | 103 µM (active) | 82.8 µM (active) | 10.3 µM (active) | CC50 [5]: 14.7 µM (active)
Cc1nnc(NC(=O)c2ccc(S(=O)(=O)N(C)Cc3ccccc3)cc2)o1 | – | > 150 µM (not active) | 17 µM (active) | 4.98 µM (active) | EC50 [6]: 2.21 µM (active); EC50 [7]: 21.7 µM (active)
CC1(C)CC(=O)C=C(Nc2ccc([N+](=O)[O-])cc2)C1 | – | – | – | – | EC50 [6]: 2.93 µM (active); EC50 [7]: > 160 µM (inactive)
Cc1ccc(NC(=O)/C(C#N)=C/c2ccc(C)s2)c(C)c1 | – | – | – | – | EC50 [8]: 9.25 µM (active); EC50 [9]: 64.2 µM (inconclusive)
COC(=O)N/N=C\C=C\c1ccc2c(c1)OCO2 | inconclusive | – | – | – | –
COc1cccc(C(=O)NC(=S)Nc2ccccc2N2CCCCC2)c1 | – | 41 µM (active) | > 150 µM (not active) | 57.8 µM (active) | –
Cc1ccc2cc3cc(C(=O)N4CCC5(CC4)OCCO5)oc3nc2c1 | inconclusive | – | – | – | –
CCN=C(S)N1CCC(NC(=O)C2CCCCC2)CC1 | inconclusive | – | – | – | AC50 (Cytochrome P450 2C19): inconclusive
Cc1cc(C)c(C#N)c(SC[S+]([O-])c2ccc(C(C)(C)C)cc2)n1 (centres undefined) | inconclusive | – | – | – | –
CCN(CC)c1ccc(/C=N/Nc2nc3ccccc3[nH]2)cc1 | – | – | – | – | EC50 [10]: 2.96 µM (active); EC50 [6]: > 38 µM (not active); EC50 [11]: 2.76 µM (active); EC50 [7]: 6.64 µM (active)
CC(C)[C@@H](C(=O)NC1CCCC1)N1C(=O)N2CCc3c([nH]c4ccccc34)[C@@]2(C)C1=O | – | > 150 µM (not active) | > 150 µM (not active) | 30.2 µM (active) | –
CSC(=Nc1ccc(F)c(Cl)c1)NS(=O)(=O)c1cccs1 | – | – | – | – | EC50 [6]: 0.805 µM (active); EC50 [7]: > 150 µM (inactive)
COc1ccc(-c2cc3nc(-c4ccccc4)cc(N4CCCC(O)C4)n3n2)cc1 (centres undefined) | – | > 150 µM (not active) | 14.3 µM (active) | 6.75 µM (active) | –
COc1ccc(/C=C2/Sc3ccc(C(=O)N4CCc5ccccc5C4)cc3NC2=O)cc1 | – | > 150 µM (not active) | 4.98 µM (active) | 1.73 µM (active) | –
Cc1nc(N)sc1-c1csc(N(C)c2ccc(O)cc2)n1 | – | > 150 µM (not active) | 95.2 µM (active) | 5.24 µM (active) | EC50 [12]: > 53 µM (inactive); IC50 [13]: > 47.1 µM (inactive)
CCOC(=O)c1c(NC(=O)CCc2ccc(CC)o2)sc(C)c1C | inconclusive | – | – | – | –
O=C(NCc1ccccn1)C1CC(c2ccc(Cl)c(Cl)c2)=NO1 (centres undefined) | inconclusive | – | – | – | AC50 (Cytochrome P450 1A2): 4.47 µM (inconclusive)
COc1ccc(OC)c(S(=O)(=O)N2CCC(C(=O)Nc3ccc(C)c(C)c3)CC2)c1 | inconclusive | – | – | – | AC50 (Cytochrome P450 1A2): 12.6 µM (inconclusive)
CO/N=C/C(=C\Nc1ccc(Cl)cc1Cl)c1ncc(C(F)(F)F)cc1Cl | – | – | – | – | EC50 [7]: > 160 µM (inconclusive)
CCOC(=O)c1c(NC(S)=NCCc2ccccc2)sc2c1CC(C(C)C)OC2 (centres undefined) | – | > 150 µM (not active) | 15.1 µM (active) | 0.814 µM (active) | –
N=c1c2c(-c3ccccc3)c(-c3ccccc3)oc2ncn1Cc1ccco1 | – | 17.5 µM (active) | 30.3 µM (active) | 6.44 µM (active) | –
CCOc1ccc(C(=O)O)cc1OC | inconclusive | – | – | – | –
Cc1ccc(-n2nnnc2SCC(=O)NNC(=O)c2ccco2)c(C)c1 | inconclusive | – | – | – | –
NC(S)=Nc1cccc2cccnc12 | inconclusive | – | – | – | –
